Test results: patent EP1534716B1, “HETEROBICYCLIC PYRAZOLE DERIVATIVES AS KINASE INHIBITORS” (priority 2002, dated 2004)
Counter-ions that a name gives are not always drawn.

Key:
Type in all cases: biochemical
Aurora-2 = biological target: T1, Aurora-2 (Homo sapiens, UniProt O14965); assay: Inhibition assay of Aurora-2 activity (SPA); conditions: 10 µM ATP, 60 minutes at room temperature
T1 sequence (O14965 1-403): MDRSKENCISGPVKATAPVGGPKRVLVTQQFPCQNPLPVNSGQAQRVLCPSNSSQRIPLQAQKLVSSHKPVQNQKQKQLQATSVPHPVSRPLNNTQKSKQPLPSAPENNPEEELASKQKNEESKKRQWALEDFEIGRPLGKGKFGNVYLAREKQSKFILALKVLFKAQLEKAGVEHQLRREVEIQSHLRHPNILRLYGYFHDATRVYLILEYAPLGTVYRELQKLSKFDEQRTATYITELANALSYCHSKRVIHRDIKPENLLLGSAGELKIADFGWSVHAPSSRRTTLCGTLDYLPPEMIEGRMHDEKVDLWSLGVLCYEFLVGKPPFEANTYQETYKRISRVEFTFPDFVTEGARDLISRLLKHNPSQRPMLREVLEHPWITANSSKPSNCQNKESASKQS
Procedure: (§1) The inhibiting activity of putative cdk/cyclin inhibitors and the potency of selected compounds is determined through a method of assay based on the use of the SPA technology (Amersham Pharmacia Biotech).
(§2) The assay consists of the transfer of radioactivity labelled phosphate moiety by the kinase to a biotinylated substrate. The resulting 33P-labelled biotinylated product is allowed to bind to streptavidin-coated SPA beads (biotin capacity 130 pmol/mg), and light emitted was measured in a scintillation counter.
(§3) Experimental data were analyzed by the computer program GraphPad Prizm using the four parameter logistic equation: [formula] where x is the logarithm of the inhibitor concentration, y is the response; y starts at bottom and goes to top with a sigmoid shape.
Inhibition assay of Aurora-2 activity
After 60 minutes at room temperature incubation, reaction was stopped and biotinylated peptide captured by adding 100 µl of bead suspension.
Stratification: 100 µl of CsC12 5 M were added to each well and let stand 4 hour before radioactivity was counted in the Top-Count instrument.
IC50 determination: see above

Cdc7/dbf4 = Cdc7/dbf4 (Homo sapiens, UniProt O00311); assay: Inhibition assay of Cdc7/dbf4 activity (SPA); conditions: 2 µM ATP, 60 minutes at 37°C
Procedure: Inhibition assay of Cdc7/dbf4 activity
The inhibition assay of Cdc7/dbf4 activity is performed according to the following protocol.
The Biotin-MCM2 substrate is trans-phosphorylated by the Cdc7/Dbf4 complex in the presence of ATP traced with γ^33-ATP. The phosphorylated Biotin-MCM2 substrate is then captured by Streptavidin-coated SPA beads and the extent of phosphorylation evaluated by β counting.
The inhibition assay of Cdc7/dbf4 activity was performed in 96 wells plate according to the following protocol.
To each well of the plate were added: • 10 µl substrate (biotinylated MCM2, 6 µM final concentration) • 10 µl enzyme (Cdc7/Dbf4, 17.9 nM final concentration) • 10 µl test compound (12 increasing concentrations in the nM to µM range to generate a dose-response curve) • 10 µl of a mixture of cold ATP (2 µM final concentration) and radioactive ATP (1/5000 molar ratio with cold ATP) was then used to start the reaction which was allowed to take place at 37°C.
Substrate, enzyme and ATP were diluted in 50 mM HEPES pH 7.9 containing 15 mM MgCl2, 2 mM DTT, 3 µM NaVO3, 2mM glycerophosphate and 0.2mg/ml BSA. The solvent for test compounds also contained 10% DMSO.
After incubation for 60 minutes, the reaction was stopped by adding to each well 100 µl of PBS pH 7.4 containing 50 mM EDTA, 1 mM cold ATP, 0.1% Triton X100 and 10 mg/ml streptavidin coated SPA beads.
After 20 min incubation, 110 µL of suspension were withdrawn and transferred into 96-well OPTIPLATEs containing 100 µl of 5M CsCl. After 4 hours, the plates were read for 2 min in a Packard TOP-Count radioactivity reader.
IC50 determination: see above.

PAK4 = PAK4 (Homo sapiens, UniProt O96013); assay: PAK4 inhibition
cdk2/Cyclin A = cdk2/Cyclin A (Homo sapiens, UniProt P24941); assay: Inhibition assay of cdk2/Cyclin A activity (SPA); conditions: 10 µM ATP, 60 min at room temperature
Procedure: as §1, §2
Inhibition assay of cdk2/Cyclin A activity
Kinase reaction: 4 µM in house biotinylated histone H1 (Sigma # H-5505) substrate, 10 µM ATP (0.1 microCi P^33γ-ATP), 1.1 nM Cyclin A/CDK2 complex, inhibitor in a final volume of 30 µl buffer (TRIS HCl 10 mM pH 7.5, MgCl2 10 mM, DTT 7.5 mM + 0.2 mg/ml BSA) were added to each well of a 96 U bottom. After incubation for 60 min at room temperature, the reaction was stopped by addition of 100 µl PBS buffer containing 32 mM EDTA, 500 µM cold ATP, 0.1% Triton X100 and 10mg/ml streptavidin coated SPA beads. After 20 min incubation, 110 µL of suspension were withdrawn and transferred into 96-well OPTIPLATEs containing 100 µl of 5M CsCl. After 4 hours, the plates were read for 2 min in a Packard TOP-Count radioactivity reader.
as §3

Cdc7/dbf4, sequence (O00311 whole entry, species assumed): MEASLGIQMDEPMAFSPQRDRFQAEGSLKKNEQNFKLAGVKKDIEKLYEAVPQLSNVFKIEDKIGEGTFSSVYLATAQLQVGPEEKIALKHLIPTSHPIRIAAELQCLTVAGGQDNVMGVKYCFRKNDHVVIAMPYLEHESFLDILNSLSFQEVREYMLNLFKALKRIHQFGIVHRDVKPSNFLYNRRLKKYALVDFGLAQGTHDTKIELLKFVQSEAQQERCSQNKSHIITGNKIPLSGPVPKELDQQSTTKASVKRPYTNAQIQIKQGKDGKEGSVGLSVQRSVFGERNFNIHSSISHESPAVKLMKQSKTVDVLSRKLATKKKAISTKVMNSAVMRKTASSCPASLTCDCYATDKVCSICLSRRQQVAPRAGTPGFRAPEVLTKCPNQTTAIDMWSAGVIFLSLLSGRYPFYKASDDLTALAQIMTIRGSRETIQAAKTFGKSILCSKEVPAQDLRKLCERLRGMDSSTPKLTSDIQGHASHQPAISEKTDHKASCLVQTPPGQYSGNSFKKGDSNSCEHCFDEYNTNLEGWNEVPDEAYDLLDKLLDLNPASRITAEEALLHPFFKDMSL
Cdc7/dbf4, sequence (Q9UBU7 whole entry partner, species assumed): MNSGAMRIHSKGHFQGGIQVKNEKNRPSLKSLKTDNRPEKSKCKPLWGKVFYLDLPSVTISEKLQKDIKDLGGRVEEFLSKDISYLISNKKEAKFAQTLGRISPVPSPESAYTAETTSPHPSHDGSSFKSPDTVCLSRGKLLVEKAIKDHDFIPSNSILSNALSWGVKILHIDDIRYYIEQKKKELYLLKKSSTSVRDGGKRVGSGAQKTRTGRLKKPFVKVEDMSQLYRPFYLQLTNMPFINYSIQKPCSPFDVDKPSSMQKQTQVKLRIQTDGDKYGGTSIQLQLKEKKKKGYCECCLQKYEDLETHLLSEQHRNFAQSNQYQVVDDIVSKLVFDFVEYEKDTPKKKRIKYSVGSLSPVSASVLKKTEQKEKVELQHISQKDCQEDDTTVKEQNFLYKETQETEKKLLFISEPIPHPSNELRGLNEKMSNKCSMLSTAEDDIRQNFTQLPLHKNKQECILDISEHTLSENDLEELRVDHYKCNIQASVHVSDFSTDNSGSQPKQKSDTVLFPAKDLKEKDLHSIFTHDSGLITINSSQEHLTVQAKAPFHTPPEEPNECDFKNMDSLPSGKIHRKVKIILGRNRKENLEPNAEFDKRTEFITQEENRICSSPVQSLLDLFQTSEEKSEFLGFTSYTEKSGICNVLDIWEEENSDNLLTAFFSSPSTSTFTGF
PAK4, sequence (O96013 whole entry, species assumed): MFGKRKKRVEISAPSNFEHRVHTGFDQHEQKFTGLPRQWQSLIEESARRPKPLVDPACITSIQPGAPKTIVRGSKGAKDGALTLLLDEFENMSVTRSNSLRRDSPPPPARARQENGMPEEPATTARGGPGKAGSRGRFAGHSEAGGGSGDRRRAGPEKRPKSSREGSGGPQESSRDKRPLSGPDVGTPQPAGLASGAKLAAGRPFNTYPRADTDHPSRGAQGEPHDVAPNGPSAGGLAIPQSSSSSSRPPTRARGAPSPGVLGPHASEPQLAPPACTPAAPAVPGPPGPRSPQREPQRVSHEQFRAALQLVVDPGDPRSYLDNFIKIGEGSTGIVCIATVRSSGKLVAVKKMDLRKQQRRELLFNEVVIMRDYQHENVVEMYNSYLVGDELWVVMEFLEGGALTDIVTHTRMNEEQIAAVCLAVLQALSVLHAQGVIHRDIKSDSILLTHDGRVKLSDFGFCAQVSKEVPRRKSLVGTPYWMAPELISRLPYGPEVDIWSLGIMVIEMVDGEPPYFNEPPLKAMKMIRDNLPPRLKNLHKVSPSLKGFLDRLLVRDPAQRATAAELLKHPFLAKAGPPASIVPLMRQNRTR

Compound	IC50 (Aurora-2) [nM]	IC50 (Cdc7/dbf4) [nM]	IC50 (PAK4) [nM]	IC50 (cdk2/Cyclin A) [nM]
CN1CCN(c2ccc(C(=O)Nc3n[nH]c4cc(C(=O)NCc5ccc(F)cc5)sc34)cc2)CC1 [Compound 95, N-(4-fluorobenzyl)-3-{[4-(4-methylpiperazin-1-yl)benzoyl]amino}-1H-thieno[3,2-c]pyrazole-5-carboxamide]	< 100	< 1000	< 500	
COC(=O)c1cc2[nH]nc(NC(=O)c3ccc(N4CCOCC4)cc3)c2s1 [Compound 52, methyl 3-[(4-morpholin-4-ylbenzoyl)amino]-1H-thieno[3,2-c]pyrazole-5-carboxylate]	< 100	< 1000	< 500	
CCC(NC(=O)c1cc2[nH]nc(NC(=O)c3ccc(N4CCOCC4)cc3)c2o1)c1ccccc1 (stereo not drawn) [Compound 164, 3-[(4-morpholin-4-ylbenzoyl)amino]-N-[-1-phenylpropyl]-1H-furo[3,2-c]pyrazole-5-carboxamide]	< 100		< 500	< 500
CN1CCN(c2ccc(C(=O)Nc3n[nH]c4cc(C(=O)O)oc34)cc2)CC1 [Compound 162, 3-{[4-(4-methylpiperazin-1-yl)benzoyl]amino}-1H-furo[3,2-c]pyrazole-5-carboxylic acid]	< 100	< 1000		
CN1CCN(c2ccc(C(=O)Nc3n[nH]c4cc(C(=O)NCc5ccc(F)cc5F)sc34)cc2)CC1 [Compound 102, N-(2,4-difluorobenzyl)-3-{[4-(4-methylpiperazin-1-yl)benzoyl]amino}-1H-thieno[3,2-c]pyrazole-5-carboxamide]	< 100	< 1000	< 500	
O=C(Nc1n[nH]c2cc(C(=O)O)oc12)c1ccc(N2CCOCC2)cc1 [Compound 161, 3-[(4-morpholin-4-ylbenzoyl)amino]-1H-furo[3,2-c]pyrazole-5-carboxylic acid]	< 100	< 1000		< 500
CCNC(=O)c1cc2[nH]nc(NC(=O)c3ccc(N4CCN(C)CC4)cc3)c2s1 [Compound 93, N-ethyl-3-{[4-(4-methylpiperazin-1-yl)benzoyl]amino}-1H-thieno[3,2-c]pyrazole-5-carboxamide dihydrochloride]		< 1000	< 500	< 500
CN1CCN(c2ccc(C(=O)Nc3n[nH]c4cc(C(=O)NCc5cccn5C)sc34)cc2)CC1 [Compound 123, 3-{[4-(4-methylpiperazin-1-yl)benzoyl]amino}-N-[(1-methyl-1H-pyrrol-2-yl)methyl]-1H-thieno[3,2-c]pyrazole-5-carboxamide]	< 100	< 1000		
CN1CCN(c2ccc(C(=O)Nc3n[nH]c4cc(C(=O)NCc5cccs5)sc34)cc2)CC1 [Compound 115, 3-{[4-(4-methylpiperazin-1-yl)benzoyl]amino}-N-(thien-2-ylmethyl)-1H-thieno[3,2-c]pyrazole-5-carboxamide]	< 100	< 1000	< 500	
O=C(Nc1n[nH]c2cc(C(=O)O)sc12)c1ccc(N2CCOCC2)cc1 [Compound 57, 3-[(4-morpholin-4-ylbenzoyl)amino]-1H-thieno[3,2-c]pyrazole-5-carboxylic acid]	< 100	< 1000		< 500
CCC(NC(=O)c1cc2[nH]nc(NC(=O)c3ccc(N4CCN(C)CC4)cc3)c2o1)c1ccccc1 (stereo not drawn) [Compound 165, 3-{[4-(4-methylpiperazin-1-yl)benzoyl]amino}-N-[1-phenylpropyl]-1H-furo[3,2-c]pyrazole-5-carboxamide]	< 100	< 1000		< 500
CN1CCN(c2ccc(C(=O)Nc3n[nH]c4cc(C(=O)NCc5cccc(Cl)c5)sc34)cc2)CC1 [Compound 96, N-(3-chlorobenzyl)-3-{[4-(4-methylpiperazin-1-yl)benzoyl]amino}-1H-thieno[3,2-c]pyrazole-5-carboxamide]	< 100		< 500	
CN1CCN(c2ccc(C(=O)Nc3n[nH]c4cc(C(=O)NCc5ccccc5F)sc34)cc2)CC1 [Compound 101, N-(2-fluorobenzyl)-3-{[4-(4-methylpiperazin-1-yl)benzoyl]amino}-1H-thieno[3,2-c]pyrazole-5-carboxamide]	< 100	< 1000	< 500	
CN1CCN(c2ccc(C(=O)Nc3n[nH]c4cc(C(=O)NCc5ccco5)sc34)cc2)CC1 [Compound 114, N-(2-furylmethyl)-3-{[4-(4-methylpiperazin-1-yl)benzoyl]amino}-1H-thieno[3,2-c]pyrazole-5-carboxamide]	< 100	< 1000	< 500	< 500
CC[C@@H](NC(=O)c1cc2[nH]nc(NC(=O)c3ccc(N4CCOCC4)cc3)c2s1)c1ccccc1 [Compound 131, 3-[(4-morpholin-4-ylbenzoyl)amino]-N-[(1R)-1-phenylpropyl]-1H-thieno[3,2-c]pyrazole-5-carboxamide]	< 100		< 500	
CN1CCN(c2ccc(C(=O)Nc3n[nH]c4cc(C(=O)NCc5ccoc5)sc34)cc2)CC1 [Compound 124, N-(3-furylmethyl)-3-{[4-(4-methylpiperazin-1-yl)benzoyl]amino}-1H-thieno[3,2-c]pyrazole-5-carboxamide]	< 100	< 1000		< 500
